Data published in paper PMC9616048, “Thermal proteome profiling reveals Haemonchus orphan protein HCO_011565 as a target of the nematocidal small molecule UMW-868” (Frontiers in Pharmacology, 2022).

What was measured:
[1] = system: A. ceylanicum in hamsters; assay: In vivo activity against A. ceylanicum in hamsters; design: species or system Ancylostoma ceylanicum
Protocol: Candidate compound(s) were tested for their effect on other nematode species (He. polygyrus and A. ceylanicum) in infected rodents.
For He. polygyrus, four NMRI mice (3 weeks old; female) were infected orally with 88 He. polygyrus L3s, and immunosuppressed with 0.25 mg/ml dexamethasone (Sigma-Aldrich), in the drinking water, until 2 days prior to treatment ([Mes et al., 2007]). For A. ceylanicum, four Syrian golden hamsters (3 weeks old; male) were infected orally with 300 L3s without immunosuppression ([Tritten et al., 2012]). Fourteen days or 23 days after the infection, mice and hamsters, respectively, were treated orally with UMW-868 at dosages of 100 mg/kg bw (mice and hamsters). Four each of untreated mice and hamsters served as placebo controls. Six to 7 days post-treatment with the compound, all animals were euthanised by CO2 (hamsters being initially narcotised using isoflurane), and the intestine was dissected. The live adult worms were collected and counted to calculate the worm burden reductions and worm expulsion rates. The worm burden reduction was calculated using the mean number of live worms for the treated group and establishing the differences, in a percentage, with reference to the untreated control group.

[2] = system: mitochondria of HepG2 human hepatoma cells; assay: Mitochondrial toxicity in HepG2 cells (galactose medium); type: cell-based; details: HepG2 mitochondria, concentrations of up to 100 µM
Protocol: The toxicities of compounds on cell and mitochondria were assessed to estimate their half-maximal cytotoxic concentrations (CC50) and half-maximal mitotoxic concentrations (MC50), respectively. HepG2 human hepatoma cells were seeded into wells of a 96-well plate at a density of 5.5 × 10^4 cells per well in 80 µl of Dulbecco’s modified eagle medium (DMEM; with GlutaMax™ cat. no. 10566016 or 4 mM L-glutamine cat. no. 11966025; Thermo Fisher Scientific), supplemented with 25 mM D-glucose (cytotoxicity) or D-galactose (mitotoxicity), 10% (v/v) inactivated foetal bovine serum (iFBS), 100 IU/ml of penicillin, 100 μg/ml of streptomycin and 0.25 μg/ml of amphotericin B (designated DMEM*). Cells were allowed to adhere for 16 h at 37°C and 5% (v/v) CO2 at > 90% relative humidity, then, incubated for 48 h with individual, serially-diluted compounds (two-fold serial dilution in DMEM*; […]) in a final volume of 100 µl. For the assessment of toxicity on mitochondria, cells were starved of serum (DMEM* without iFBS) for 4 h prior to the 48 h-incubation with compounds ([Swiss and Will, 2011]; [Kamalian et al., 2015]). Two positive control compounds, doxorubicin (cytotoxic control) and M-666 (mitotoxic control) were each added to three individual wells in each 96-well plate at a single concentration of 10 µM. DMEM* + 0.25% (v/v) DMSO was added to 12 wells in each plate as negative controls. Monepantel and moxidectin were also serially diluted — prepared in the same manner as test compounds — and used as (“non-toxic”) reference compounds. After 48 h of incubation, cell viability was determined by the crystal violet staining method ([Śliwka et al., 2016]). The absorbance (595 nm) of treated cells was normalised with reference to the negative control (100% viability). To determine the CC50 and MC50 values, compound concentrations were log10-transformed, baseline-corrected using a respective positive control (doxorubicin or M-666) and fitted using a variable slope four-parameter equation with a least squares (ordinary) fit model using GraphPad Prism software (v.9.1.2). Compounds and controls were tested in triplicate.

[3] = system: exsheathed third-stage larvae (xL3s) of H. contortus; assay: High throughput screen, xL3 motility (infrared light beam-interference); type: cell-based; details: Haemonchus contortus, 90 h, read-out: Motility reduction at 90 h (%)
Protocol: An established platform was used for compound screening ([Taki et al., 2021a]). Using a semi-automated liquid handling robot (VIAFLO ASSIST PLUS, Integra Biosciences), compounds were individually diluted to […] in LB* containing 0.2% (v/v) DMSO and then dispensed in 20 µl into the wells of sterile 384-well flat bottom microtitre plates (cat. no. 3680; Corning); 320 compounds were arrayed on each plate, with 16 wells being negative controls (with LB* + 0.2% DMSO) and four wells containing each monepantel (Zolvix; Elanco), moxidectin (Cydectin; Virbac), monepantel + abamectin (Zolvix Plus; Elanco) and compound MIPS-0018666 (abbreviated here as M-666) ([Le et al., 2018]) as positive controls (20 µM). Following the dilution and dispensing of compounds into plates, 80 H. contortus xL3s in 20 μl of LB* were transferred to individual wells; after this step, the final concentrations were 20 µM of test- or positive-control compound, and 0.2% of DMSO. During dispensing, xL3s were maintained in a homogenous suspension using a constant stream of bubbles produced employing an aquarium pump (H2Pro). Plates containing H. contortus xL3s were incubated at 38 °C, 10% (v/v) CO2 and >90% relative humidity.
After 90 h of incubation with compounds (20 μM), H. contortus xL3s motility was measured for 15 min in individual wells of each plate by infrared light beam-interference ([Simonetta and Golombek, 2007]) using a WMicroTracker ONE instrument (Phylumtech). Raw data captured were normalised against measurements obtained for the positive (monepantel) and negative (LB* + 0.2% DMSO) controls to remove plate-to-plate variation by calculating the percentage of motility using the program GraphPad Prism (v.9.1.2; GraphPad Software). A compound was considered active (“hit”) if it reduced larval motility by ≥ 70%. To continually assess the performance of the screening assay, the Z′-factor ([Zhang et al., 1999]) was calculated (using data for the DMSO and the M-666 controls) for individual plates (n = 43) and was consistently ≥0.7; reliable assays achieve a Z′-factor of between 0.5 and 1. The signal to background (S/B) ratio (for the same controls) ([Sui and Wu, 2007]) was consistently >200.

[4] = hamster, A. ceylanicum, 100 mg/kg single oral dose

For CCCc1ccc(-c2nc(-c3cccs3)no2)cc1 [UMW-868, 5-(4-propylphenyl)-3-(2-thienyl)-1,2,4-oxadiazole], which “Mean no. of worms (SD)” value [1, 4] is on record?
The value was 4.8 (1.0).

And the “Reduction in infection intensity (%)” value [1, 4]?
The value was 48%.

And the “acute toxicity and pathological changes in treated animals” value ([1]; hamsters, single oral dose, post-mortem examination)?
The value was “neither evidence of acute toxicity”.

What about the “mitotoxicity (in words)” value [2] of the same molecule?
The value was “did not display any appreciable cytotoxicity or mitotoxicity”.

And the inhibition at 20 µM [3]?
The inhibition at 20 µM was 78.4%.
